Consider two compounds from US20230263770A1, “THERAPY OF POST-OPERATIVE NAUSEA AND VOMITING” (ACACIA PHARMA LTD, priority 2020, published 2023).

Series [1] relates to patients with BMI ≥35. In words: Study 1: treatment-emergent adverse events, prophylaxis in patients with BMI ≥35. Type of series: in vivo, human. On the procedure: (§1) A randomised, double-blind, placebo-controlled study of amisulpride for IV injection as treatment against post-operative nausea and vomiting in patients having a high BMI (≥30) was conducted. The primary aim of the study was to compare the efficacy of 5 mg and 10 mg amisulpride to placebo as treatment or prevention of PONV, in patients with a high BMI.
(§2) The study was performed in adult patients (≥18 years) having a BMI ≥30 who were undergoing elective ambulatory (day-case) or in-patient surgery under general inhalational anaesthesia for an expected duration of at least one hour from induction of anaesthesia to extubation.
(§3) Amisulpride at a dose of 5 mg (prophylaxis) or 10 mg (rescue treatment) or matching placebo was given once by slow IV administration, over about 2 minutes.

Series [2] deals with adult surgical patients at moderate-to-high risk of suffering PONV. Kind of series: Two Phase III placebo-controlled trials, PONV prophylaxis. The settings on record: 5 mg, 626 evaluable patients, vs 59% placebo, p<0.01. The class given is in vivo, human.
The test system of series [3] is patients having a high BMI (≥30). In words: Study 1: prophylaxis of PONV in patients with a high BMI (complete response and secondary endpoints). The class given is in vivo, human. Conditions: for CR (PONV) 0-2 hours / CR (PONV) 0-24 hours / CR (emesis) / CR (nausea) / CR (severe nausea): prophylactic therapy, 5 mg. The procedure:
as §1, §2, §3
(§4) The primary efficacy variable was the absence or presence of PONV during the 24-hour post-operative period, where PONV was defined as the occurrence of one or more emetic episodes (vomiting and/or retching) or the receipt of one or more doses of rescue anti-emetic medication in the 24 hours after wound closure (prophylaxis study) or dosing (treatment study). Absence of PONV by this definition was termed “Complete Response” (CR). A number of secondary variables were evaluated including the occurrence of emesis (vomiting and/or retching).
(§5) A comparison of the incidence of CR in the 0-2 and 0-24 hour periods after surgery between the amisulpride group and the placebo group using Pearson's X2 test with Yates's continuity correction at a one-sided significance level of 2.5%. The primary efficacy analysis population was the modified intent-to-treat (mITT) population.
Secondary efficacy variables assessed by incidence (e.g., emesis) were compared between the groups using Pearson's X2 test.

Series [4] shares this test system. Kind of series: Study 1: rescue treatment of PONV in patients with a high BMI. Type of series: in vivo, human. Conditions: for CR (PONV), rescue treatment: 10 mg. On the procedure: as §1, §2, §3, §4, §5
Series [5] relates to bariatric surgery patients. Kind of series: Study 1: complete response in bariatric surgery patients (prophylaxis and rescue treatment). The class given is in vivo, human. On the procedure:
(§6) The present invention is based on the results of a Phase III study of amisulpride as prophylaxis against PONV in high-risk patients, conducted by the applicant. The Phase III study results include data from two randomized, double-blind, placebo-controlled, multi-centre Phase III trials of amisulpride, either as a prophylaxis, or rescue treatment for PONV.
as §3, §4

Series [6] relates to patients undergoing bariatric surgery. In words: Study 1: treatment-emergent adverse events in patients undergoing bariatric surgery. Type of series: in vivo, human. Conditions: 5 mg prophylaxis or 10 mg rescue treatment, n = 53. On the procedure:
as §6, §3

Series [7] has as its system adult surgical patients at high risk of suffering PONV. Kind of series: Phase III trial, amisulpride in combination with a standard anti-emetic, PONV prophylaxis. The settings on record: 5 mg in combination with a standard anti-emetic, 1147 evaluable patients; vs 53% placebo combination, p<0.001. The class given is in vivo, human.
Series [8] has as its system adult surgical patients at moderate-to-high risk of suffering PONV. In words: Phase II dose-ranging trial, IV amisulpride as PONV prophylaxis. The class given is in vivo, human. The settings on record: for incidence of PONV: prophylaxis. The procedure:
In a multi-centre, double-blind, randomised, dose-ranging Phase II trial (conducted by the applicant), amisulpride was given intravenously to adult surgical patients at moderate-to-high risk of suffering PONV (prophylaxis), at doses of 1 mg, 5 mg and 20 mg, with a fourth group receiving placebo.

Series [9] deals with patients who had not received prior prophylaxis. Kind of series: Clinical trial, treatment of PONV in patients without prior prophylaxis. Type of series: in vivo, human. Conditions: doses of 5 mg and 10 mg; no difference between the doses. The procedure: In another clinical trial conducted by the applicant, amisulpride at doses of 5 mg and 10 mg were compared with placebo for the treatment of PONV, in patients who had not received prior prophylaxis.

Series [10] concerns patients having a high BMI (≥30). In words: Study 1: prophylaxis of PONV in patients with a high BMI (complete response and secondary endpoints). Type of series: in vivo, human. The settings on record: IV 5 mg + another antiemetic.
For series [11] the following is noted: compared to the (R+)-enantiomer; cited from earlier work.
Where [12] appears, read: 5 mg prophylaxis, BMI ≥35, n = 149.
[13] abbreviates: prophylaxis, IV 5 mg + another antiemetic, BMI ≥35, mITT, P 0.011.

The structures appear in SMILES notation. Entries after “also recorded” stand apart in the source; their conditions may differ.

As to `CCN1CCCC1CNC(=O)c1cc(S(=O)(=O)CC)c(N)cc1OC` (racemic) [Amisulpride, amisulpride], the “Number of patients with any adverse event” value in series [1] (setting [12]) is listed as 79 n; in series [6], 30 n. Also, the results for the “Patients with any adverse event” value in series [1] (setting [12]) and in series [6] were “(53) %” and “(57) %”, respectively. The “incidence of any treatment-emergent adverse events (TEAE) or serious adverse events (SAE), amisulpride vs placebo” value in [1] (high BMI and bariatric subgroups) is listed as “No material difference”. Also, the “incidence of PONV” value turned out to be 48% in series [2]; 42% in series [7]; 48% in [8] (1 mg intravenously, p<0.05 vs placebo (69%)); 40% in series [8] (5 mg intravenously, p<0.01 vs placebo (69%)). In addition, the “CR (0-24 h), patients with CR/total” value in [3] (5 mg prophylaxis, BMI ≥35, 42/129 for placebo) is 71/149; in series [3] (setting [13]), 71/149; in series [10] (BMI <35, mITT, P 0.002) it was 259/423; in [10] (all patients, mITT, P <0.001) it was 330/572. Also, the “secondary endpoints compared to placebo (FIGS. 1 and 2)” value in [3] (5 mg prophylaxis, BMI ≥35, all secondary endpoints with the exception of emesis) is given as “statistically significantly superior to placebo”. In addition, the “preventing PONV at 24 hours compared to placebo” value in series [3] (5 mg prophylaxis, overall study population and particularly BMI ≥35 subgroup) is given as “more effective than placebo”. Further, the “absolute risk reduction, amisulpride versus placebo” value turned out to be 15.10 in series [3] (patients with BMI ≥35 (printed 235), 0-24 h) and 10.50 in series [3] (patients with a BMI <35, 0-24 h). For the same compound, the “relative risk reduction (RRR) of the incidence of PONV” value in series [3] (patients with a high BMI (printed 230), compared to RRR of the overall risk of PONV) is reported as “much higher than expected”. Also, the “CR (PONV) 0-2 hours” value in [3] (BMI ≥30, 251 patients) is recorded as 53.0%; in series [3] (BMI ≥35, 149 patients, p = 0.002) it was 73.8% (p = 0.002). Besides, the “CR (PONV) 0-24 hours” value in [3] (BMI ≥30, 251 patients) was 53.0%; in [3] (BMI ≥35, 149 patients, p = 0.01) it was 47.7% (p = 0.01). Further, the “CR (emesis)” value is listed as 12.6% (251 patients) in [3] (BMI ≥30, 251 patients) and 14.8% (149 patients) in [3] (BMI ≥35, 149 patients). The “CR (nausea)” value was 55.0% (251 patients) in series [3] (BMI ≥30, 251 patients) and 58.4% (149 patients) in series [3] (BMI ≥35, 149 patients). For the same compound, the “CR (severe nausea)” value in [3] (BMI ≥30, 251 patients) is 41.8% (251 patients); in series [3] (BMI ≥35, 149 patients), 45.0% (149 patients). Besides, the “CR (0-24 h)” value was “(47.7%)” in [3] (setting [13]); “(61.2%)” in series [10] (BMI <35, mITT, P 0.002); “(57.7%)” in series [10] (all patients, mITT, P <0.001). In addition, the “preventing PONV compared to placebo” value in series [3] (prophylaxis, patients with a high BMI) was “more effective than placebo”. Besides, the “safety and efficacy for prevention or treatment of PONV (overall conclusion)” value in [3] (single IV dose, patients with a high BMI and bariatric surgery population, post-hoc analysis) is “safe and effective; also recorded: safe and efficacious”. Further, the “CR (PONV), rescue treatment” value in [4] (BMI ≥30, 251 patients) is given as 46.6% (251 patients); in series [4] (BMI ≥35, 149 patients), 51.7% (149 patients). The “effectiveness as rescue treatment for PONV” value in series [4] (dose of 10 mg, prior prophylaxis drug given, high (≥30) BMI and/or bariatric surgery patients) is given as “particularly effective”. Besides, in series [4] (patients with a high BMI), the “CR rate, rescue treatment compared to placebo” value is on record as “higher”. Besides, the “complete response rate (after 24 hours) compared to placebo” value in [5] (bariatric surgery patients, amisulpride prophylaxis or rescue treatment) is recorded as “higher”. The “complete response rate at 24 hours” value worked out at 18.2% in [5] (bariatric surgery, amisulpride prophylaxis (5 mg), vs 7.3% placebo, P=0.16); 25.0% in series [5] (bariatric surgery, amisulpride rescue treatment (10 mg), vs 9.1% placebo, P=0.17); 20.8% in [5] (combined prophylaxis and rescue treatment bariatric subgroup, placebo 7.9%). Also, the “complete response at 24 hours, patients/total” value in series [5] (combined prophylaxis and rescue treatment bariatric subgroup, placebo 5/63) is given as 11/53. For the same compound, the “effectiveness for prophylaxis and rescue treatment of PONV in bariatric surgery patients vs other surgery types” value in series [5] (human, in vivo) is on record as “as effective”. The “incidence of PONV compared to placebo” value in series [8] (all amisulpride groups (1 mg, 5 mg and 20 mg)) is “lower”. Also, in series [9], the “treating PONV compared to placebo” value is “significantly better than placebo”.
In the case of `CCN1CCCC1CNC(=O)c1cc(S(=O)(=O)CC)c(N)cc1OC` (single isomer, unassigned) [(S−)-enantiomer, (S−)-amisulpride], in [11], the “share of the therapeutic activity of amisulpride” value is recorded as “almost all of the therapeutic activity”.
